# Assay results as given in US20250101383A1, “METHODS AND COMPOSITIONS FOR CARDIAC MODELS” (Sanford Burnham Prebys Medical Discovery Institute, priority 2023, published 2025).
# Columns and labels:
# [1] = system: hiPSC-ACMs (atrial-like cardiomyocytes); assay: Arrhythmia assay and drug treatment in ACMs (arrhythmia index, AI); format: cell-based, human; details: for percentage of cells with AI values >20: control 4%
# Description: To test the platform's ability to identify APD modulators, ACMs of the present disclosure were infused with isoproterenol, a non-selective β-adrenergic agonist, known to both shorten APD and increase beat rate in hiPSC-CMs. […] Consistent with median APD75 values, escalating doses of isoproterenol (1 and 9 μM) led to an increase of APD75 KS-D value to ˜0.4 and 0.7 respectively, as compared to control (FIG. 5C). Similarly, to quantify cellular manifestations of arrhythmia, an arrhythmia index (AI) was developed that quantifies beat-to-beat interval irregularities as a metric for arrhythmically beating cells (FIG. 9). In this context, AP trains with AI values lower than 20 were determined to describe regular beating patterns, while AP train with AI values >20 mark were determined to describe irregular beating patterns (FIGS. 10A-E). Finally, to benchmark the platform for arrhythmia-associated phenotypes, the role of dofetilide, a class III anti-arrhythmic that selectively blocks the rapid component of the delayed rectifier outward potassium, was tested.
# 24 hours post-transfection, 2,000 primary human fibroblasts were added per well to the hiPSC-ACMs. 48 hours later (the day of the imaging), cells were dyed with the voltage sensitive dye Vf2.1 Cl as described above, then treated with 50 μL of 2× solution of isoproterenol (1 μM final) diluted in Tyrode alone and in combination with 2× solution of Verapamil (30 nM final), diluted in Tyrode at the 5th wash. After 20 minutes of compound incubation time, cells were imaged, and single-cell traces analyzed as described previously.
# [2] = system: hiPSC-ACMs (atrial-like cardiomyocytes); assay: Voltage assay in ACMs (single-cell APD); format: cell-based, human; details: for median APD75: untreated 121.3 ms
# Source text: Next, to facilitate the characterization of AF-associated arrhythmia phenotypes in ACMs, an imaging platform was developed that automatically tracks and quantifies action potential (AP) and rhythm parameters in HT with single cell resolution (FIGS. 4A-D). To retrieve AP and rhythm parameters, ACMs of the present disclosure were co-labeled with a voltage dye (VF2.1Cl) and a nuclear dye (Hoechst 33258) (McKeithan et al., 2017). For each condition, one image of the Hoechst dye was collected followed by a 5-second acquisition of the voltage dye channel at 100 Hz. Next, using a custom algorithm developed on the ImageXpress®, each cell in the field of view was segmented using the Hoechst topological information and each cell mask was propagated to the “voltage dye channel”, thereby enabling the quantification of voltage-dependent fluorescence variation over time with single-cell resolution. To retrieve the electrophysiological parameters, a cloud-based trace analysis application was developed that automatically processes each AP trace and retrieves median and standard deviation values, for APD-10, 25, 50, 75, 90; T25-75, T75-25; Vmax up and down; beat rate; peak-to-peak interval; and rhythm regularity index; for each cell. This platform enabled the automatic recording, quantification, and analysis of AP and rhythm parameters in less than 2 minutes per condition.
# Voltage assay was performed using the labeling protocol described herein. Briefly, hiPSC-ACMs at day 25 of differentiation were dissociated with TrypLE Select 10× for up to 10 min and the action of TrypLE was neutralized with RPMI supplemented with 10% FBS. Cells were resuspended in RPMI with 2% KOSR (Gibco) and 2% B27 50× with vitamin A (Life Technologies) supplemented with 2 μM Thiazovivin and plated at a density of 6,000 cells per well in a Matrigel-coated 384-well plate. hiPSC-ACMs were then transfected with siRNAs directed against AFib-associated genes (ON-TARGETplus Human, siGATA4: J-008244-05-0002, siGATA5: J-010324-06-0005, siGATA6: J-008351-06-0005, siGJA1: J-011042-05-0002, siGJA5: J-017368-05-0002, siHAND2: J-008698-06-0005, siHCN4: J-006203-05-0002, siKCNA5: J-006215-06-0005, siKCND3: L-006226-00-0005, siKCNJ5: J-006250-06-0002, siKCNN3: J-006270-06-0002, siNKX2-5: J-019795-07-0002, siNKX2-6: J-025793-17-0002, siNPPA: J-012729-05-0002, siPITX2: J-017315-05-0005, siPLN: J-011754-05-0005, siSH3PXD2A: J-006657-07-0002, siSYNE2: J-019259-09-0002, siTBX5: J-013410-5-0002, siZFHX3: J-015410-5-0002) using lipofectamine RNAi Max (ThermoFisher). […] Fluorescence over time quantification and trace analysis were quantified using custom software packages. […]
# Drosophila heart = assay: Octopamine-challenge heart assay; format: in vivo; details: for mean nMAD (arrhythmia) post-octopamine pacing: 100 nM OA
# Source text: Cardiac phenotypes of middle-aged (3-weeks old) female flies from each cross were characterized using denervated, semi-intact preparations as previously described in (Ocorr et al., 2009; Vogler and Ocorr, 2009). Briefly, hearts from 20-25 flies were examined for each genotype and age. Adult female flies were exposed to FlyNap, a triethylamine-based anesthetic, for at least one minute until no movement was detected. Hearts were exposed by dissection in room temperature, air bubbled, artificial hemolymph (AHL, Ocorr et al, 2007). High-speed video recordings were filmed with a Hamamatsu EM-CCD camera and using HC Image capture software (Hamamatsu Corp). Heart movements were analyzed using the Semi-automated Optical Heartbeat Analysis (SOHA) software (sohasoftware.com). Movies were recorded at speeds of 140+ fps with pixel resolution ˜ 1 micron/pixel allowing very precise temporal and spatial measurements, including heart period (HP) and rate (1/HP), diastolic and systolic intervals, and fractional shortening/contractility. To quantitate arrhythmia, median absolute deviation (MAD) was first calculated. The median value of the absolute deviations of each heart period (Xi) from the median heart period ((X)) was calculated and then multiplied by a constant (k=1.4826 assuming data is normally distributed).
# To normalize the MAD index (nMAD), the MAD value was divided by the median heart period. Qualitative records of heart wall movements (M-modes/kymographs) were produced by electronically excising a 1 pixel horizontal “slice” from each movie frame and aligning them horizontally providing an edge trace displaying heart wall movements in the X-axis over time along the Y-axis (Ocorr et al., 2009; Ocorr et al., 2007c).
# Octopamine (OA) pacing experiments were performed in situ on the semi-intact fly preparation. OA (Sigma-Aldrich #00250) stock solution (10 mM) was freshly prepared by dissolving in water and was further diluted in AHL. A dose-response curve was generated using doses ranging from 0.1 nM OA to 500 nM OA (Supplemental FIG. 5A). The increase in heart rate was maximal at 100 nM OA, which was the dose used for all subsequent pacing experiments (Supplemental FIG. 5B). Following dissection, hearts were first allowed to equilibrate in fresh AHL for 15 min and 30 sec movies of heart function were recorded. Heart function was recorded three times per fly: 1) pre-drug exposure, 2) after a 15-minute exposure to 100 nM OA, and 3) after a 15-minute post drug exposure recovery period. A second set of hearts exposed only to vehicle (AHL) were filmed at the same three 15-minute intervals to serve as time controls.
# Id1-induced CPs = assay: Generation of atrial-like cardiomyocytes from Id1-induced cardiac progenitors; format: cell-based, human; details: retinoic acid 300 nM single dose, day 12
# Description: To study the molecular basis of chamber-specific electrical disorders such as atrial fibrillation, Id1-overexpressing cardiac progenitors (CPs) were used to generate ACMs (Cunningham et al., 2017, and Yu et al., 2018). Treatment of Id1-induced CPs with a single dose of retinoic acid (300 nM) efficiently promoted the generation of atrial-like, NR2F2+ beating CMs (˜80% were NR2F2+, ACTN2+) (FIG. 1 and FIGS. 2A-B). Consistent with an atrial-like identity, induced ACMs also expressed atria-enriched (Devalla et al., 2015; Uhlen et al., 2015) transcription factors (NR2F2, TBX5, ZNF385B), ion channel genes KCNA5 (encoding Kv1.5) and KCNJ3 (encoding Kir 3.1), ligands (NPPA, NPPB) and receptors (EGR1/2, PDGFRA), at both day 12 and at day 25 of differentiation (FIG. 2C and FIGS. 6A-B).
# ACMs for the study were developed by dissociating Id1 overexpressing hiPSCsl with 0.5 mM EDTA (ThermoFisher Scientific) in PBS without CaCl2 and MgCl2 (Corning) for 7 min at room temperature. hiPSC were resuspended in mTeSR-1 media (StemCell Technologies) supplemented with 2 μM Thiazovivin (StemCell Technologies) and plated in a Matrigel-coated 12-well plate at a density of 3×10^5 cells per well. […]
# [3] = acute OA exposure, control and KD lines
structure (smiles),measurement,setting,value
CN(CCOc1ccc(NS(C)(=O)=O)cc1)CCc1ccc(NS(C)(=O)=O)cc1 [dofetilide],proportion of arrhythmic cells (AI>20),"[1]; dofetilide 33 nM, control 4.0%",3.9%
same,KS-D value of AI distribution vs control,[1]; dofetilide 100 nM,0.7
same,percentage of cells with AI values >20,[1]; dofetilide 100 nM,67%
same,percentage of cells with AI values >20,"[1]; dofetilide 100 nM, listed as Dofetilide",67.0%
same,AI as compared to control,[1]; low dose of dofetilide (33 nM),reduced AI
CC(C)NCC(O)c1ccc(O)c(O)c1 (stereo not shown) [isoproterenol],APD75 KS-D value as compared to control,[2]; isoproterenol 1 μM,~0.4
same,median APD75,[2]; isoproterenol 1 μM,108.6 ms
same,APD75 KS-D value as compared to control,[2]; isoproterenol 9 μM,0.7
same,median APD75,[2]; isoproterenol 9 μM,91.2 ms
same,percentage of arrhythmic cells,[1]; isoproterenol alone,did not increase
NCC(O)c1ccc(O)cc1 (stereo not shown) [octopamine],mean nMAD (arrhythmia) post-octopamine pacing,Drosophila heart; PLN/SclA KD hearts,0.1342
same,mean nMAD (arrhythmia) post-octopamine pacing,Drosophila heart; control hearts,0.0379
same,heart rate,Drosophila heart; [3],significantly elevated heart rate
same,systolic intervals,Drosophila heart; [3],significantly shortening systolic intervals
same,dose of maximal effect on heart rate,Drosophila heart; doses 0.1 nM to 500 nM OA,100 nM
same,contraction and relaxation intervals,Drosophila heart; in the presence of OA,significantly shortened
CC1=C(/C=C/C(C)=C/C=C/C(C)=C/C(=O)O)C(C)(C)CCC1 [retinoic acid],"NR2F2+, ACTN2+ cells",Id1-induced CPs,~80%
COc1ccc(CCN(C)CCCC(C#N)(c2ccc(OC)c(OC)c2)C(C)C)cc1OC (stereo not shown) [verapamil],fold less arrhythmic than DMSO control,"[1]; verapamil 30 nM, PLN KD+Fib+isoproterenol",1.7 fold
same,percentage of arrhythmic cells,"[1]; verapamil 30 nM, PLN KD+Fib+isoproterenol, DMSO control 31.2%",18%
